Data published in ChEMBL document CHEMBL2074327, “hPepT1-mediated epithelial transport of bacteria-derived chemotactic peptides enhances neutrophil-epithelial interactions” (J Clin Invest, 1998).
Peptide text beside a SMILES is read from it.

Columns and labels:
Type in all cases: functional, cell-based
[1] = biological target: T1, Solute carrier family 15 member 1 (Homo sapiens) (UniProt P46059); assay: TP_TRANSPORTER: inhibition of fMLP uptake (fMLP: 0.1 uM, Gly-Pro: 10000 uM) in Caco-2 cells
T1 sequence (whole entry): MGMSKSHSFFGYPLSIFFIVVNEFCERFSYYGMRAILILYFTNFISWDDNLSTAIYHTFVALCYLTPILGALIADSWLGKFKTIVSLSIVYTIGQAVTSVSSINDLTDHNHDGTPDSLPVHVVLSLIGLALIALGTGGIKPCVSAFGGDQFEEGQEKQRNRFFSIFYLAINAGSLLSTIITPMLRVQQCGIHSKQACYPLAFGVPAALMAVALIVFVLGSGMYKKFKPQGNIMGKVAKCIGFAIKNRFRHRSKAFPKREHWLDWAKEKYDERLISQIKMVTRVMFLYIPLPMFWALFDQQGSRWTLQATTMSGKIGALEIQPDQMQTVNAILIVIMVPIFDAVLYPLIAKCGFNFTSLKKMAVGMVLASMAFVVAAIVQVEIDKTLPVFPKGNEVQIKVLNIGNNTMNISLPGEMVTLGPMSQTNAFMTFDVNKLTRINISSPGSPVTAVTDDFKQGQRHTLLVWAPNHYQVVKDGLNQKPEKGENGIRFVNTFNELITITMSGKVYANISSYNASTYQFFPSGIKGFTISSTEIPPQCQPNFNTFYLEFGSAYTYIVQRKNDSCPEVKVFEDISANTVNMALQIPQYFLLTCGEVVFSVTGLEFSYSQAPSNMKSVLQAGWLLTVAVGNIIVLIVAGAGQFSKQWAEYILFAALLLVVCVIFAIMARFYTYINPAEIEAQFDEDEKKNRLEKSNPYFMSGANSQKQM

[2] = biological target: T1, Solute carrier family 15 member 1 (Homo sapiens); assay: TP_TRANSPORTER: inhibition of fMLP uptake (fMLP: 0.12 uM, Gly-Leu: 10000 uM) in Xenopus laevis oocytes; details: Oocyte
[3] = biological target: T1, Solute carrier family 15 member 1 (Homo sapiens); assay: TP_TRANSPORTER: inhibition of fMLP uptake (fMLP: 0.1 uM, Gly-Leu: 10000 uM) in Caco-2 cells
[4] = biological target: T1, Solute carrier family 15 member 1 (Homo sapiens); assay: TP_TRANSPORTER: inhibition of Gly-Sar uptake (Gly-Sar: 100 uM, fMLP: 1000 uM) in Xenopus laevis oocytes; details: Oocyte
[5] = biological target: T1, Solute carrier family 15 member 1 (Homo sapiens); assay: TP_TRANSPORTER: uptake in Xenopus laevis oocytes; details: Oocyte
[6] = biological target: T1, Solute carrier family 15 member 1 (Homo sapiens); assay: TP_TRANSPORTER: inhibition of fMLP uptake (fMLP: 0.1 uM, Carnosine: 10000 uM) in Caco-2 cells

## NCC(=O)N1CCC[C@H]1C(=O)O (H-Gly-Pro-OH)
[1]
  inhibition: 78%

## CC(C)C[C@H](NC(=O)CN)C(=O)O
[2]
  Activity: inhibitor [+]
[3]
  inhibition: 93%

## CSCC[C@H](NC=O)C(=O)N[C@@H](CC(C)C)C(=O)N[C@@H](Cc1ccccc1)C(=O)O
[4]
  inhibition: 88%
[5]
  Activity: substrate [+]

## NCCC(=O)N[C@@H](Cc1c[nH]cn1)C(=O)O
[6]
  inhibition: 93%
